# Patent EP3967293A1, “COMPOSITION BASED ON VITAMIN E FOR TOPIC USE” (Sigla S.r.l., priority 2020, dated 2022)
# Tests used:
# [1] = index of diffusion (spreading value), in vivo test on the forearm; details: 4 mg on the forearm; 23°C; relative humidity 60%; ten minutes after application
# Method: The index of diffusion of a compound is defined as the area (in mm^2) of a skin surface covered by said compound in a specific period of time.
# The method used to determine the index of diffusion of a liquid component is an in vivo test. This method consists in applying 4 mg of the component to be analysed on the front forearm of an individual. For each component, 4 separate applications were carried out on the same individual. The test is carried out at a temperature of 23°C and at a relative humidity of 60%. Ten minutes after application of a sample on the forearm the area of diffusion was photographed and measured.
# [2] = viscosity, Rheomat RM 180 rheometer; assay type: physicochemical; details: at 20°C; 1500 shear rate for 5 min.
# Method: The viscosity is measured using a Rheomat RM 180 rheometer. The sample analysed has a temperature between 20-25°C. The settings for the viscosity test are: bob 9, tube 1, 1500 shear rate for 5 min. (300 sec.).
structure (smiles),measurement,setting,value
CCCCCCCCOCCCCCCCC [Dicaprylyl ether],Index of diffusion,[1],1600 mm^2/10 min.
same,Viscosity,[2],4 mPa·s
